What follows are molecules tested on glycine receptor (GlyR) (assay: Glycine-induced chloride current (IGly), whole-cell patch-clamp in isolated pyramidal neurons of the rat hippocampus). Settings: not given.
Type: cell-based
Method: (§1) All experiments were conducted per the requirements of the Ministry of Public Health of the Russian Federation and were consistent with the EU directive for Use of Experimental Animals of the European Community. […] The cells were isolated from transverse hippocampal slices as described in detail elsewhere ([Vorobjev, 1991]). Briefly, the slices (200–500 μm) of Wistar rats (11–14 days of age) hippocampus or cerebellum were incubated at room temperature for at least 2 h in a solution containing the following components (in mM): 124 NaCl, 3 KCl, 2 CaCl2, 2 MgSO4, 25 NaHCO3, 1.3 NaH2PO4, 10 D-glucose, pH 7.4. The saline was continuously stirred and bubbled with carbogen (95% 0_2 + 5% CO2). Single pyramidal neurons from the hippocampal CA3 area or Purkinje cells from sagittal slices of the cerebellum were isolated by a vibrating fused glass pipette with a spherical tip.
(§2) Isolated neurons were patch clamped and then lifted into the outflow of the control bath solution. […] The substances were applied through glass capillary, 0.1 mm in diameter, which could be rapidly displaced laterally ([Vorobjev et al., 1996]). A fast perfusion technique allows a complete exchange of external solution surrounding a neuron within 20 ms. […] Transmembrane currents were recorded using a conventional patch-clamp technique in the whole-cell configuration. […] The solution in the recording pipette contained the following (in mM): 40 CsF, 100 CsCl, 0.5 CaCl2, 5 EGTA, 3 MgCl2, 4 NaATP, 5 HEPES, pH 7.3. The composition of the extracellular solution was as follows (in mM): 140 NaCl, 3 KCl, 3 CaCl2, 3 MgCl2, 10 D-glucose, 10 HEPES hemisodium, and pH 7.4. Recording of the currents was performed using EPC7 patch-clamp amplifier (HEKA Electronik, Germany). The holding potential was maintained at −70 mV. Transmembrane currents were filtered at 3 kHz, stored and analyzed with IBM-PC computer, using homemade software.
(§3) Statistical analysis was performed with the help of Prism Graphpad software. All comparisons were made with ANOVA-test using Dunnett’s multiple comparison test and Student’s unpaired t-test at a significance level of p = 0.05. N = 5–8 cells from 3 to 4 animals for every concentration. […] The meanings of asterisks (probability levels) in figures is the following: ^∗P < 0.05, ^∗∗P < 0.01. The IC50 values for steroids inhibition of the IGly and IGABA were determined using the equation: Y = 1 – [max/(1 + (IC50/C)^n)], where max is the maximum inhibition attainable, C is the concentration of steroid, IC50 is the half-maximal inhibitory concentration and n is the slope factor (Hill coefficient).
(§4) First, the ability of steroids to affect the holding current at voltage-clamp regime was tested. […] The experiments with IGly were conducted on rat hippocampal neurons, and experiments with IGABA were conducted on rat cerebellar Purkinje cells.

Compound | τdes Hill coefficient of IGly | τdes IGly (effect on time constant of desensitization) | τdes max (maximum inhibition attainable) of IGly
C[C@]12CC[C@H]3[C@@H](CC=C4C[C@@H](O)CC[C@@]43C)[C@@H]1CC[C@@H]2O [Compound 7, 3β,17β-Androst-5-ene-3,17-diol] | 0.56 ± 0.13 | −70% | 0.81 ± 0.09

Same assay, conditions: 0.1 μM of steroid; 100 μM glycine; mean ± SEM, normalized

Compound | τdes/τdes control of IGly
C[C@]12CC[C@H]3[C@@H](CCC4=CC(=O)CC[C@@]43C)[C@@H]1CC[C@@H]2O [Compound 1, 17β-Hydroxyandrost-4-en-3-one] | 0.68 ± 0.05
C[C@]12CCC(=O)C=C1CC[C@@H]1[C@@H]2CC[C@]2(C)C(=O)CC[C@@H]12 [Compound 2, Androst-4-en-3,17-dione] | 0.73 ± 0.06
C[C@]12CC[C@H]3[C@@H](CC=C4C[C@@H](O)CC[C@@]43C)[C@@H]1CC[C@@H]2O [Compound 7, 3β,17β-Androst-5-ene-3,17-diol] | 0.72 ± 0.03

Same assay, conditions: 10 μM compound; 100 μM glycine

Compound | τdes IGly (effect on time constant of desensitization)
C[C@]12CC[C@H]3[C@@H](CCC4=CC(=O)CC[C@@]43C)[C@@H]1CC[C@@H]2O [Compound 1, 17β-Hydroxyandrost-4-en-3-one] | −67%
C[C@]12CCC(=O)C=C1CC[C@@H]1[C@@H]2CC[C@]2(C)C(=O)CC[C@@H]12 [Compound 2, Androst-4-en-3,17-dione] | −84%

Same assay, conditions: 10 μM of steroid; 100 μM glycine; mean ± SEM, normalized

Compound | Ipeak/Ipeak control of IGly
C[C@]12CC[C@H]3[C@@H](CCC4=CC(=O)CC[C@@]43C)[C@@H]1CC[C@@H]2O [Compound 1, 17β-Hydroxyandrost-4-en-3-one] | 0.75 ± 0.03
C[C@]12CCC(=O)C=C1CC[C@@H]1[C@@H]2CC[C@]2(C)C(=O)CC[C@@H]12 [Compound 2, Androst-4-en-3,17-dione] | 0.82 ± 0.02
C[C@]12CC[C@H]3[C@@H](CC=C4C[C@@H](O)CC[C@@]43C)[C@@H]1CC[C@@H]2O [Compound 7, 3β,17β-Androst-5-ene-3,17-diol] | 0.75 ± 0.02

Same assay, conditions: 0.1 and 1 μM compound

Compound | Effect on IGly in words
C[C@]12CC[C@H]3[C@@H](CCC4=CC(=O)CC[C@@]43C)[C@@H]1CC[C@@H]2O [Compound 1, 17β-Hydroxyandrost-4-en-3-one] | accelerated desensitization without effect on the peak amplitude

Same assay, conditions: 10 and 100 μM compound

Compound | Effect on IGly in words
C[C@]12CC[C@H]3[C@@H](CCC4=CC(=O)CC[C@@]43C)[C@@H]1CC[C@@H]2O [Compound 1, 17β-Hydroxyandrost-4-en-3-one] | acceleration of desensitization and a decrease in peak amplitude

Same assay, conditions: Hill fit, peak amplitude; 100 μM glycine

Compound | Ipeak max (maximum inhibition attainable) of IGly
C[C@]12CC[C@H]3[C@@H](CCC4=CC(=O)CC[C@@]43C)[C@@H]1CC[C@@H]2O [Compound 1, 17β-Hydroxyandrost-4-en-3-one] | 0.58 ± 0.10
C[C@]12CCC(=O)C=C1CC[C@@H]1[C@@H]2CC[C@]2(C)C(=O)CC[C@@H]12 [Compound 2, Androst-4-en-3,17-dione] | 0.55 ± 0.09
C[C@]12CC[C@H]3[C@@H](CC=C4C[C@@H](O)CC[C@@]43C)[C@@H]1CC[C@@H]2O [Compound 7, 3β,17β-Androst-5-ene-3,17-diol] | 0.52 ± 0.09

Same assay, conditions: Hill fit, time constant of desensitization; 100 μM glycine

Compound | τdes max (maximum inhibition attainable) of IGly
C[C@]12CC[C@H]3[C@@H](CCC4=CC(=O)CC[C@@]43C)[C@@H]1CC[C@@H]2O [Compound 1, 17β-Hydroxyandrost-4-en-3-one] | 0.72 ± 0.08
C[C@]12CCC(=O)C=C1CC[C@@H]1[C@@H]2CC[C@]2(C)C(=O)CC[C@@H]12 [Compound 2, Androst-4-en-3,17-dione] | 0.97 ± 0.10

Same assay, conditions: peak amplitude; 100 μM glycine

Compound | Ipeak Hill coefficient of IGly
C[C@]12CC[C@H]3[C@@H](CCC4=CC(=O)CC[C@@]43C)[C@@H]1CC[C@@H]2O [Compound 1, 17β-Hydroxyandrost-4-en-3-one] | 1.1 ± 0.32
C[C@]12CCC(=O)C=C1CC[C@@H]1[C@@H]2CC[C@]2(C)C(=O)CC[C@@H]12 [Compound 2, Androst-4-en-3,17-dione] | 1.1 ± 0.36
C[C@]12CC[C@H]3[C@@H](CC=C4C[C@@H](O)CC[C@@]43C)[C@@H]1CC[C@@H]2O [Compound 7, 3β,17β-Androst-5-ene-3,17-diol] | 0.71 ± 0.16

Same assay, conditions: read-out: Ipeak IC50 of IGly; inhibition of peak amplitude; 100 μM glycine

Compound | IC50
C[C@]12CC[C@H]3[C@@H](CCC4=CC(=O)CC[C@@]43C)[C@@H]1CC[C@@H]2O [Compound 1, 17β-Hydroxyandrost-4-en-3-one] | 19.3 ± 2.3 µM
C[C@]12CCC(=O)C=C1CC[C@@H]1[C@@H]2CC[C@]2(C)C(=O)CC[C@@H]12 [Compound 2, Androst-4-en-3,17-dione] | 18.1 ± 2.9 µM
C[C@]12CC[C@H]3[C@@H](CC=C4C[C@@H](O)CC[C@@]43C)[C@@H]1CC[C@@H]2O [Compound 7, 3β,17β-Androst-5-ene-3,17-diol] | 16.2 ± 2.3 µM

Same assay, conditions: read-out: τdes IC50 of IGly

Compound | IC50
C[C@]12CC[C@H]3[C@@H](CC=C4C[C@@H](O)CC[C@@]43C)[C@@H]1CC[C@@H]2O [Compound 7, 3β,17β-Androst-5-ene-3,17-diol] | 0.29 ± 0.12 µM

Same assay, conditions: read-out: τdes IC50 of IGly; acceleration of desensitization (decrease in τdes); 100 μM glycine

Compound | IC50
C[C@]12CC[C@H]3[C@@H](CCC4=CC(=O)CC[C@@]43C)[C@@H]1CC[C@@H]2O [Compound 1, 17β-Hydroxyandrost-4-en-3-one] | 0.13 ± 0.06 µM
C[C@]12CCC(=O)C=C1CC[C@@H]1[C@@H]2CC[C@]2(C)C(=O)CC[C@@H]12 [Compound 2, Androst-4-en-3,17-dione] | 0.49 ± 0.16 µM

Same assay, conditions: time constant of desensitization; 100 μM glycine

Compound | τdes Hill coefficient of IGly
C[C@]12CC[C@H]3[C@@H](CCC4=CC(=O)CC[C@@]43C)[C@@H]1CC[C@@H]2O [Compound 1, 17β-Hydroxyandrost-4-en-3-one] | 0.58 ± 0.20
C[C@]12CCC(=O)C=C1CC[C@@H]1[C@@H]2CC[C@]2(C)C(=O)CC[C@@H]12 [Compound 2, Androst-4-en-3,17-dione] | 0.60 ± 0.11

These molecules were tested against T1, GABAA receptors (Rattus norvegicus, UniProt P18508+P62813+P63138) (assay: not given). Settings: not given.
T1 construct: Single pyramidal neurons from the hippocampal CA3 area or Purkinje cells from sagittal slices of the cerebellum were isolated; endogenous in cells; host or cells: acutely isolated Purkinje cells from cerebellar slices of Wistar rats, 11-14 days old
T1 sequence (P62813 28-455): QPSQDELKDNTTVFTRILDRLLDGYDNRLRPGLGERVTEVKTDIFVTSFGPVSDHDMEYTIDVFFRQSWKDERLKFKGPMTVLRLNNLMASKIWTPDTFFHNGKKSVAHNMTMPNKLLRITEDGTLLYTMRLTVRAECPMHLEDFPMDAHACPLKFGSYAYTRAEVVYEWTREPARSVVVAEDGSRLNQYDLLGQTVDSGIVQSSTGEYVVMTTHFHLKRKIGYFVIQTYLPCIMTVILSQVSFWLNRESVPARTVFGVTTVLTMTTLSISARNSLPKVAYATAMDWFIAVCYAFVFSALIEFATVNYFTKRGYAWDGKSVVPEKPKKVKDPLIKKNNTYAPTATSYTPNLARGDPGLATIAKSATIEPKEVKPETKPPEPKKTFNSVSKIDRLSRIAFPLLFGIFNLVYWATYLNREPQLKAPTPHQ
T1 sequence (P63138 25-474 limits assumed): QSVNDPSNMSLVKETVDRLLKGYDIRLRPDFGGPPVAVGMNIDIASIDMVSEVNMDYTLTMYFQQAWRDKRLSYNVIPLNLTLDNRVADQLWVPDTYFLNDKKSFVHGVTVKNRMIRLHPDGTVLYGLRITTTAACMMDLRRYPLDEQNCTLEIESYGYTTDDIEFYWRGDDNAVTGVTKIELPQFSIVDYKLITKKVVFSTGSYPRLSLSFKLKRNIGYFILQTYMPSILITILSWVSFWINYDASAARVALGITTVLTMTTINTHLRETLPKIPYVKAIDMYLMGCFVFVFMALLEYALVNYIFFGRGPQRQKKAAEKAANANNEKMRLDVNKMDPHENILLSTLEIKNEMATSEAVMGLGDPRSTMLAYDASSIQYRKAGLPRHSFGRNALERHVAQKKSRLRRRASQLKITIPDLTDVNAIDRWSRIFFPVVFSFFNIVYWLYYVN
T1 sequence (P18508 39-466): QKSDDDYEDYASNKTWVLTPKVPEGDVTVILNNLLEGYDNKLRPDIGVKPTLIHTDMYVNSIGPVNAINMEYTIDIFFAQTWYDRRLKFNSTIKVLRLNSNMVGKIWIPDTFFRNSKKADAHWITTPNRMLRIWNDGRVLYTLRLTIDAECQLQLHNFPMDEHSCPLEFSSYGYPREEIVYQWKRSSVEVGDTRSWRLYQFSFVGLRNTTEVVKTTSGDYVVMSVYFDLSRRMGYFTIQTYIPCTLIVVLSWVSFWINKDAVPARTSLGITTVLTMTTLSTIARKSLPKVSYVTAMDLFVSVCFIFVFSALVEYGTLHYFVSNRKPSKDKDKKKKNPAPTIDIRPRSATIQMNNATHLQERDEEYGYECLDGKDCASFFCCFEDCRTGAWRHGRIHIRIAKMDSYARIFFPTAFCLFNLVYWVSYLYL
Type: cell-based
Method: as §1, §2, §3, §4

Compound | Acceleration of decay (desensitization) of IGABA | Decrease in the peak amplitude of IGABA | Ipeak/Ipeak control of IGABA | τdes IGABA (effect in words) | τdes/τdes control of IGABA
C[C@]12CC[C@H]3[C@@H](CC=C4C[C@@H](O)CC[C@@]43C)[C@@H]1CC[C@@H]2O [Compound 7, 3β,17β-Androst-5-ene-3,17-diol] | 23–45% | 14–25% | 0.77 ± 0.06 | ^bNo effect | 0.98 ± 0.02

Same assay, conditions: 10 μM of steroid; 5 μM GABA

Compound | τdes/τdes control of IGABA
C[C@]12CC[C@H]3[C@@H](CCC4=CC(=O)CC[C@@]43C)[C@@H]1CC[C@@H]2O [Compound 1, 17β-Hydroxyandrost-4-en-3-one] | 0.99 ± 0.02
C[C@]12CCC(=O)C=C1CC[C@@H]1[C@@H]2CC[C@]2(C)C(=O)CC[C@@H]12 [Compound 2, Androst-4-en-3,17-dione] | 0.98 ± 0.02

Same assay, conditions: 50 μM compound; 5 μM GABA

Compound | Acceleration of decay (desensitization) of IGABA | Decrease in the peak amplitude of IGABA
C[C@]12CC[C@H]3[C@@H](CCC4=CC(=O)CC[C@@]43C)[C@@H]1CC[C@@H]2O [Compound 1, 17β-Hydroxyandrost-4-en-3-one] | 23–45% | 14–25%
C[C@]12CCC(=O)C=C1CC[C@@H]1[C@@H]2CC[C@]2(C)C(=O)CC[C@@H]12 [Compound 2, Androst-4-en-3,17-dione] | 23–45% | 14–25%

Same assay, conditions: 50 μM of steroid; 5 μM GABA

Compound | Ipeak/Ipeak control of IGABA
C[C@]12CC[C@H]3[C@@H](CCC4=CC(=O)CC[C@@]43C)[C@@H]1CC[C@@H]2O [Compound 1, 17β-Hydroxyandrost-4-en-3-one] | 0.86 ± 0.03
C[C@]12CCC(=O)C=C1CC[C@@H]1[C@@H]2CC[C@]2(C)C(=O)CC[C@@H]12 [Compound 2, Androst-4-en-3,17-dione] | 0.77 ± 0.02

Same assay, conditions: footnote b: did not modulate IGABA up to the concentration of 10 μM; 5 μM GABA

Compound | τdes IGABA (effect in words)
C[C@]12CC[C@H]3[C@@H](CCC4=CC(=O)CC[C@@]43C)[C@@H]1CC[C@@H]2O [Compound 1, 17β-Hydroxyandrost-4-en-3-one] | ^bNo effect
C[C@]12CCC(=O)C=C1CC[C@@H]1[C@@H]2CC[C@]2(C)C(=O)CC[C@@H]12 [Compound 2, Androst-4-en-3,17-dione] | ^bNo effect

From article PMC7098970, “Neurosteroids as Selective Inhibitors of Glycine Receptor Activity: Structure-Activity Relationship Study on Endogenous Androstanes and Androstenes” (Frontiers in Molecular Neuroscience, 2020)
